From patent publication US4499083A, “3-O-Demethyl derivatives of the istamycin B series of compounds” (Zaidan Hojin Biseibutsu Kagaku Kenkyu Kai, priority 1980, dated 1985)
In brackets after ≈: the same amount, converted by molar mass. Where two headings read alike, the source gives them in different places.

What was measured:
Assay type in all cases: cell-based
Escherichia coli K-12 R5 = assay: Antibacterial spectrum, MIC by serial dilution on nutrient agar; conditions: K12R5, 17 h, read-out: Minimum inhibitory concentration
Serratia marcescens = assay: as above; conditions: read-out: Minimum inhibitory concentration
[1] = system: Bacillus subtilis PCI 219; assay: as above; conditions: read-out: Minimum inhibitory concentration
Proteus rettgeri GN311 = assay: as above; conditions: Providencia rettgeri, 37° C., 17 hours, read-out: Minimum inhibitory concentration
[2] = system: Klebsiella pneumoniae PCI602; assay: as above; conditions: 37° C., 17 hours, read-out: Minimum inhibitory concentration
[3] = system: Pseudomonas aeruginosa K-Ps 102; assay: as above; conditions: read-out: Minimum inhibitory concentration
[4] = system: Bacillus cereus ATCC 10702; assay: as above; conditions: read-out: Minimum inhibitory concentration
[5] = system: Escherichia coli K-12 LA290 R55; assay: as above; conditions: K12LA290R55, 17 h, read-out: Minimum inhibitory concentration
[6] = system: Escherichia coli K-12 ML1410 R81; assay: as above; conditions: K12ML1410R81, 17 h, read-out: Minimum inhibitory concentration
Escherichia coli K-12 = assay: as above; conditions: K12, 37° C., 17 hours, read-out: Minimum inhibitory concentration
[7] = system: Pseudomonas aeruginosa GN315; assay: as above; conditions: 37° C., 17 hours, read-out: Minimum inhibitory concentration
Proteus rettgeri GN466 = assay: as above; conditions: Providencia rettgeri, read-out: Minimum inhibitory concentration
[8] = system: Pseudomonas aeruginosa TI-13; assay: as above; conditions: TI13, 37° C., 17 hours, read-out: Minimum inhibitory concentration
[9] = system: Pseudomonas aeruginosa H9; assay: as above; conditions: 37° C., 17 hours, read-out: Minimum inhibitory concentration
[10] = system: Pseudomonas aeruginosa H11; assay: as above; conditions: 37° C., 17 hours, read-out: Minimum inhibitory concentration
[11] = system: Staphylococcus aureus Ap01; assay: as above; conditions: 37° C., 17 hours, read-out: Minimum inhibitory concentration
[12] = system: Escherichia coli K-12 LA290 R56; assay: as above; conditions: K12LA290R56, 17 h, read-out: Minimum inhibitory concentration
Bacillus anthracis = assay: microbe, parasite or virus in culture; conditions: 17 h, read-out: Minimum inhibitory concentration
[13] = system: Escherichia coli K-12 LA290 R64; assay: Antibacterial spectrum, MIC by serial dilution on nutrient agar; conditions: K12LA290R64, 17 h, read-out: Minimum inhibitory concentration
Sarcina lutea PCI 1001 = assay: as above; conditions: Micrococcus luteus, PCI1001, 37° C., 17 hours, read-out: Minimum inhibitory concentration
[14] = system: Pseudomonas aeruginosa 21-75; assay: as above; conditions: 2175, 37° C., 17 hours, read-out: Minimum inhibitory concentration
[15] = system: Pseudomonas aeruginosa A3; assay: as above; conditions: 37° C., 17 hours, read-out: Minimum inhibitory concentration
[16] = system: Pseudomonas aeruginosa ROS 134/PU21; assay: as above; conditions: ROS134/PU21, 17 h, read-out: Minimum inhibitory concentration
Serratia sp. 4 = assay: as above; conditions: 37° C., 17 hours, read-out: Minimum inhibitory concentration
[17] = system: Staphylococcus aureus FDA 209P; assay: as above; conditions: FDA209P, 37° C., 17 hours, read-out: Minimum inhibitory concentration
[18] = system: Staphylococcus epidermidis 109; assay: as above; conditions: 37° C., 17 hours, read-out: Minimum inhibitory concentration
[19] = system: Pseudomonas aeruginosa PST1; assay: as above; conditions: 37° C., 17 hours, read-out: Minimum inhibitory concentration
Salmonella typhi T-63 = assay: as above; conditions: Salmonella enterica, 17 h, read-out: Minimum inhibitory concentration
[20] = system: Escherichia coli K-12 ML1410; assay: as above; conditions: read-out: Minimum inhibitory concentration
Escherichia coli NIHJ = assay: as above; conditions: read-out: Minimum inhibitory concentration
[21] = system: Micrococcus flavus FDA 16; assay: as above; conditions: FDA16, 37° C., 17 hours, read-out: Minimum inhibitory concentration
[22] = system: Bacillus subtilis NRRL B-558; assay: as above; conditions: read-out: Minimum inhibitory concentration
[23] = system: Mycobacterium smegmatis ATCC 607; assay: as above; conditions: Mycolicibacterium smegmatis, read-out: Minimum inhibitory concentration
Escherichia coli JR255 = assay: as above; conditions: read-out: Minimum inhibitory concentration
[24] = system: Shigella dysenteriae JS11910; assay: as above; conditions: JS11910, 17 h, read-out: Minimum inhibitory concentration
[25] = system: Pseudomonas aeruginosa B-13; assay: as above; conditions: B13, 37° C., 17 hours, read-out: Minimum inhibitory concentration
[26] = system: Escherichia coli JR66/W677; assay: as above; conditions: JR66/W677, 17 h, read-out: Minimum inhibitory concentration
[27] = PCI219, Bacillus subtilis PCI 219, nutrient agar, 37° C., 17 hours
[28] = KPS102, Pseudomonas aeruginosa K-Ps 102, nutrient agar, 37° C., 17 hours
[29] = ATCC10702, Bacillus cereus ATCC 10702, nutrient agar, 37° C., 17 hours
[30] = Escherichia coli, K12ML1410, 17 h
[31] = Escherichia coli NIHJ, nutrient agar, 37° C., 17 hours
[32] = NRRLB558, Bacillus subtilis NRRL B-558, nutrient agar, 37° C., 17 hours
[33] = ATCC607, Mycobacterium smegmatis ATCC 607, nutrient agar, 37° C., 17 hours
[34] = Escherichia coli JR255, nutrient agar, 37° C., 17 hours
[35] = nutrient agar, 37° C., 17 hours

CNCC1CCC(N)C(OC2C(N)CC(O)C(N(C)C(=O)CNC=N)C2O)O1 (stereo not drawn) [3-O-Demethyl-2"-N-formimidoylistamycin B]
MIC (Escherichia coli K-12 R5): 3.13 µg/mL (≈ 7.78 µM) | MIC (Serratia marcescens; 17 h): 3.13 µg/mL (≈ 7.78 µM) | MIC [1, 27]: < 0.2 µg/mL | MIC (Proteus rettgeri GN311): 12.5 µg/mL (≈ 31.1 µM) | MIC [2]: 1.56 µg/mL (≈ 3.88 µM) | MIC [3, 28]: 12.5 µg/mL (≈ 31.1 µM) | MIC [4, 29]: 1.56 µg/mL (≈ 3.88 µM) | MIC [5]: 1.56 µg/mL (≈ 3.88 µM) | MIC [6]: 1.56 µg/mL (≈ 3.88 µM) | MIC (Escherichia coli K-12): 1.56 µg/mL (≈ 3.88 µM) | MIC [7]: 6.25 µg/mL (≈ 15.5 µM) | MIC (Proteus rettgeri GN466; GN466, 17 h): 3.13 µg/mL (≈ 7.78 µM) | MIC [8]: 6.25 µg/mL (≈ 15.5 µM) | MIC [9]: 12.5 µg/mL (≈ 31.1 µM) | MIC [10]: 25 µg/mL (≈ 62.1 µM) | MIC [11]: 0.78 µg/mL (≈ 1.94 µM) | MIC [12]: 1.56 µg/mL (≈ 3.88 µM) | MIC (Bacillus anthracis): < 0.2 µg/mL | MIC [13]: 1.56 µg/mL (≈ 3.88 µM) | MIC (Sarcina lutea PCI 1001): < 0.2 µg/mL | MIC [14]: 25 µg/mL (≈ 62.1 µM) | MIC [15]: 1.56 µg/mL (≈ 3.88 µM) | MIC [16]: 50 µg/mL (≈ 124 µM) | MIC (Serratia sp. 4): 6.25 µg/mL (≈ 15.5 µM) | MIC [17]: 0.2 µg/mL (≈ 0.497 µM) | MIC [18]: 0.78 µg/mL (≈ 1.94 µM) | MIC [19]: 25 µg/mL (≈ 62.1 µM) | MIC (Salmonella typhi T-63): 0.78 µg/mL (≈ 1.94 µM) | MIC [20, 30]: 3.13 µg/mL (≈ 7.78 µM) | MIC (Escherichia coli NIHJ; [31]): 1.56 µg/mL (≈ 3.88 µM) | MIC [21]: < 0.2 µg/mL | MIC [22, 32]: < 0.2 µg/mL | MIC [23, 33]: < 0.2 µg/mL | MIC (Escherichia coli JR255; [34]): 0.78 µg/mL (≈ 1.94 µM) | MIC [24]: 3.13 µg/mL (≈ 7.78 µM) | MIC [25]: > 100 µg/mL | MIC [26]: 3.13 µg/mL (≈ 7.78 µM)

CNCC1CCC(N)C(OC2C(N)CC(O)C(N(C)C(=O)CN)C2O)O1 (stereo not drawn) [3-O-Demethylistamycin B]
MIC (Escherichia coli K-12 R5): 6.25 µg/mL (≈ 16.6 µM) | MIC (Serratia marcescens; [35]): 12.5 µg/mL (≈ 33.3 µM) | MIC ([1]; Bacillus subtilis, PCI219, 17 h): < 0.2 µg/mL | MIC (Proteus rettgeri GN311): 12.5 µg/mL (≈ 33.3 µM) | MIC [2]: 3.13 µg/mL (≈ 8.34 µM) | MIC ([3]; Pseudomonas aeruginosa, KPS102, 17 h): 6.25 µg/mL (≈ 16.6 µM) | MIC ([4]; Bacillus cereus, ATCC10702, 17 h): 1.56 µg/mL (≈ 4.15 µM) | MIC [5]: 6.25 µg/mL (≈ 16.6 µM) | MIC [6]: 3.13 µg/mL (≈ 8.34 µM) | MIC (Escherichia coli K-12): 3.13 µg/mL (≈ 8.34 µM) | MIC [7]: 12.5 µg/mL (≈ 33.3 µM) | MIC (Proteus rettgeri GN466; GN466, 17 h): 6.25 µg/mL (≈ 16.6 µM) | MIC [8]: 12.5 µg/mL (≈ 33.3 µM) | MIC [9]: 25 µg/mL (≈ 66.6 µM) | MIC [10]: 25 µg/mL (≈ 66.6 µM) | MIC [11]: 0.78 µg/mL (≈ 2.08 µM) | MIC [12]: 3.13 µg/mL (≈ 8.34 µM) | MIC (Bacillus anthracis): < 0.2 µg/mL | MIC [13]: 3.13 µg/mL (≈ 8.34 µM) | MIC (Sarcina lutea PCI 1001): 0.39 µg/mL (≈ 1.04 µM) | MIC [14]: 50 µg/mL (≈ 133 µM) | MIC [15]: 3.13 µg/mL (≈ 8.34 µM) | MIC [16]: 50 µg/mL (≈ 133 µM) | MIC (Serratia sp. 4): 12.5 µg/mL (≈ 33.3 µM) | MIC [17]: 0.39 µg/mL (≈ 1.04 µM) | MIC [18]: 0.78 µg/mL (≈ 2.08 µM) | MIC [19]: 50 µg/mL (≈ 133 µM) | MIC (Salmonella typhi T-63): 1.56 µg/mL (≈ 4.15 µM) | MIC ([20]; K12ML1410, Escherichia coli K-12 ML1410, nutrient agar, 37° C., 17 hours): 3.13 µg/mL (≈ 8.34 µM) | MIC (Escherichia coli NIHJ; Escherichia coli, 17 h): 1.56 µg/mL (≈ 4.15 µM) | MIC [21]: 3.13 µg/mL (≈ 8.34 µM) | MIC ([22]; Bacillus subtilis, NRRLB558, 17 h): < 0.2 µg/mL | MIC ([23]; ATCC607, 17 h): < 0.2 µg/mL | MIC (Escherichia coli JR255; Escherichia coli, JR255, 17 h): 1.56 µg/mL (≈ 4.15 µM) | MIC [24]: 6.25 µg/mL (≈ 16.6 µM) | MIC [25]: 50 µg/mL (≈ 133 µM) | MIC [26]: 6.25 µg/mL (≈ 16.6 µM)

CNCC1CCC(N)C(OC2C(N)CC(OC)C(N(C)C(=O)CN)C2O)O1 (stereo not drawn) [Istamycin B, istamycin B]
MIC (Escherichia coli K-12 R5): 3.13 µg/mL (≈ 8.04 µM) | MIC (Serratia marcescens; [35]): 6.25 µg/mL (≈ 16 µM) | MIC [1, 27]: < 0.2 µg/mL | MIC (Proteus rettgeri GN311): 12.5 µg/mL (≈ 32.1 µM) | MIC [2]: 1.56 µg/mL (≈ 4.01 µM) | MIC [3, 28]: 50 µg/mL (≈ 128 µM) | MIC [4, 29]: 1.56 µg/mL (≈ 4.01 µM) | MIC [5]: 3.13 µg/mL (≈ 8.04 µM) | MIC [6]: 1.56 µg/mL (≈ 4.01 µM) | MIC (Escherichia coli K-12): 1.56 µg/mL (≈ 4.01 µM) | MIC [7]: 50 µg/mL (≈ 128 µM) | MIC (Proteus rettgeri GN466; Proteus rettgeri GN466, nutrient agar, 37° C., 17 hours): 6.25 µg/mL (≈ 16 µM) | MIC [8]: 25 µg/mL (≈ 64.2 µM) | MIC [9]: 50 µg/mL (≈ 128 µM) | MIC [10]: 50 µg/mL (≈ 128 µM) | MIC [11]: 0.78 µg/mL (≈ 2 µM) | MIC [12]: 1.56 µg/mL (≈ 4.01 µM) | MIC (Bacillus anthracis): < 0.2 µg/mL | MIC [13]: 1.56 µg/mL (≈ 4.01 µM) | MIC (Sarcina lutea PCI 1001): 0.2 µg/mL (≈ 0.513 µM) | MIC [14]: 100 µg/mL (≈ 257 µM) | MIC [15]: 6.25 µg/mL (≈ 16 µM) | MIC [16]: > 100 µg/mL | MIC (Serratia sp. 4): 50 µg/mL (≈ 128 µM) | MIC [17]: 0.39 µg/mL (≈ 1 µM) | MIC [18]: 0.78 µg/mL (≈ 2 µM) | MIC [19]: 100 µg/mL (≈ 257 µM) | MIC (Salmonella typhi T-63): 0.39 µg/mL (≈ 1 µM) | MIC [20, 30]: 3.13 µg/mL (≈ 8.04 µM) | MIC (Escherichia coli NIHJ; [31]): 1.56 µg/mL (≈ 4.01 µM) | MIC [21]: 6.25 µg/mL (≈ 16 µM) | MIC [22, 32]: < 0.2 µg/mL | MIC [23, 33]: 0.78 µg/mL (≈ 2 µM) | MIC (Escherichia coli JR255; [34]): 0.78 µg/mL (≈ 2 µM) | MIC [24]: 3.13 µg/mL (≈ 8.04 µM) | MIC [25]: > 100 µg/mL | MIC [26]: 3.13 µg/mL (≈ 8.04 µM)
